Our source for the DC50 values is patent US20260306640A1, “TECHNOLOGIES TARGETING CELL STATES” (Auron Therapeutics, Inc., priority 2023, published 2026).

KAT2A, sequence (Q92830 whole entry): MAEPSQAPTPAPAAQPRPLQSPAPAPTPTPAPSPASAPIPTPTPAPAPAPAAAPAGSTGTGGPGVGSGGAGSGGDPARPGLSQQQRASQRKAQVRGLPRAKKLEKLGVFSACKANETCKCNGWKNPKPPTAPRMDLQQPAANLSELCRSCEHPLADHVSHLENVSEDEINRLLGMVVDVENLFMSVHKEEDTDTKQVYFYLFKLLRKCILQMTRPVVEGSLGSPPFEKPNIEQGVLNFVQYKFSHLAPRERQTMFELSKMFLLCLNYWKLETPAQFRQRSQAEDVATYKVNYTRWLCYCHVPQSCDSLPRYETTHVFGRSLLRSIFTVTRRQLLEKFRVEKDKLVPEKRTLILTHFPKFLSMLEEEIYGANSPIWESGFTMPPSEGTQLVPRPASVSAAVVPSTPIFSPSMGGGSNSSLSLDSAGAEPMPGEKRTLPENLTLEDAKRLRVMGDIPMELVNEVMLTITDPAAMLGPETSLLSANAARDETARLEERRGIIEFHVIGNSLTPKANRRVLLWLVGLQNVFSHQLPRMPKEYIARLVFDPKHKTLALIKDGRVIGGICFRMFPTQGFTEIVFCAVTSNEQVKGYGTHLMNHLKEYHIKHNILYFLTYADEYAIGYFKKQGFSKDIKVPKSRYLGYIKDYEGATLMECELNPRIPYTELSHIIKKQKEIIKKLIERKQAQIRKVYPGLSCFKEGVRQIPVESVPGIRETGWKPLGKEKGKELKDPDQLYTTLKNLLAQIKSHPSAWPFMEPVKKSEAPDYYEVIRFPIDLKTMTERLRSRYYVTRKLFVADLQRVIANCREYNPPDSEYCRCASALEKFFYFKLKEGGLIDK

For this assay, the target named is KAT2A (Homo sapiens, UniProt Q92830). The assay is described as follows: KAT2A degradation, Western Blot (Jess), MOLM-13 cells. Type of assay: cell-based. More on the design: degrader, Western blot. As to conditions: MOLM-13 cells, KAT2A, 24 h, Western Blot, vs DMSO; read-out: KAT2A MOLM-13 DC50. As for the experimental part:
MOLM-13 cells or NCI-H1048 cells were used for Western Blot analysis of KAT2A degradation. KAT2B degradation can be measured in a similar manner with NCI-H1048 cells.
MOLM-13 cells were maintained at 37° C. in 5% CO2 and 90% humidity in RPMI 1640 supplemented with 20% fetal bovine serum (FBS) and 1× penicillin/streptomycin. Cells were plated in full media at 1-2 million cells/2 mL in a 6-well tissue culture treated plate with or without compounds for 24 h at 37° C. in 5% CO2.
MOLM-13 cells or NCI-H1048 cells were washed with PBS, then lysed with RIPA buffer containing 1×protease and phosphatase inhibitors (SantaCruz Biotechnologies Cat #sc-24948A). Protein was isolated by centrifugation at 12,000×g for 10 minutes at 4° C. and supernatant was collected. Protein was quantified via Bradford assay. Samples were diluted to 4 μg lysate in 16 μL RIPA buffer and then 4 μL of Jess Sample Buffer. Samples were heated at 95° C. for 5 minutes. Samples were loaded onto 12-230 kDa Jess™ Separation Module, 8×25 capillary cartridges (SM-W004, Biotechne). Antibodies loaded were: Primary antibody for KAT2A (GCN5L2 (C26A10) Rabbit mAb (3305, CST)) and for KAT2B (PCAF (C14G9)) Rabbit mAb (3378, CST) at 1:1000 and Anti-Rabbit Detection Module for Jess™ (Cat No #DM-001, Biotechne). Signal was detected by chemiluminescence.
DC50 values were determined from percent reduction of protein as compared to the DMSO control.
For orientation: In western blotting, separated proteins are transferred to a membrane and probed.
In the case of `CN1C[C@H](Nc2cnn(C)c(=O)c2Br)C[C@H](c2ccc(C(=O)N3CC4(CN(Cc5cccc6c5C(=O)N(C5CCC(=O)NC5=O)C6=O)C4)C3)cc2)C1` (some centres unmarked) [Compound 59], the DC50 lay within 1 to 30 nM. In the case of `CN1C[C@H](Nc2cnn(C)c(=O)c2Cl)C[C@H](c2ccc(C(=O)N3CCC4(CC3)CCN(c3cccc(C5CCC(=O)NC5=O)c3)CC4)cc2)C1` (some centres unmarked) [Compound 163] it was < 1 nM; in that of `CN1C[C@H](Nc2cnn(C)c(=O)c2Br)C[C@H](c2ccc(CN3CC(Oc4ccc5c(c4)C(=O)N(C4CCC(=O)NC4=O)C5=O)C3)cc2)C1` (some centres unmarked) [Compound 95], < 1 nM; in that of `Cc1c(N[C@@H]2C[C@H](c3ccc(CN4CCC(c5ccc6c(c5)CN(C5CCC(=O)NC5=O)C6=O)CC4)cc3)CN(C)C2)cnn(C)c1=O` (some centres unmarked) [Compound 150], < 1 nM. In the case of `CN1C[C@H](Nc2cnn(C)c(=O)c2Br)C[C@H](c2ccc(C(=O)N3CCC(Oc4cccc5c4C(=O)N(C4CCC(=O)NC4=O)C5=O)CC3)cc2)C1` (some centres unmarked) [Compound 19] it was 1 to 30 nM; in that of `CN1C[C@H](Nc2cnn(C)c(=O)c2Br)C[C@H](c2ccc(CN3CCN(Cc4ccc(Oc5cccc6c5C(=O)N(C5CCC(=O)NC5=O)C6=O)cc4)CC3)cc2)C1` (some centres unmarked) [Compound 50], < 1 nM. As to `CN1C[C@H](Nc2cnn(C)c(=O)c2Br)C[C@H](c2ccc(CN3CCC(Oc4ccc(F)c(C5CCC(=O)NC5=O)c4)CC3)cc2)C1` (some centres unmarked) [Compound 132], the DC50 was < 1 nM. For `CN1C[C@H](Nc2cnn(C)c(=O)c2Br)C[C@H](c2ccc(C(=O)N3CCN(Cc4ccc(N5CCC(=O)NC5=O)cc4)CC3)cc2)C1` [Compound 102], the DC50 is > 30 nM. In the case of `CN1C[C@H](Nc2cnn(C)c(=O)c2)C[C@H](c2ccc(CN3CCC(c4ccc5c(c4)CN(C4CCC(=O)NC4=O)C5=O)CC3)cc2)C1` (some centres unmarked) [Compound 85] it was > 30 nM; in that of `CN1C[C@H](Nc2cnn(C)c(=O)c2Br)C[C@H](c2ccc(CNCC3CCC(COc4cccc5c4C(=O)N(C4CCC(=O)NC4=O)C5=O)CC3)cc2)C1` (some centres unmarked) [Compound 35], < 1 nM. Take `CN1C[C@H](Nc2cnn(C)c(=O)c2Br)C[C@H](c2ccc(C(=O)N3CCC(N4CCN(c5ccc6c(c5)C(=O)N(C5CCC(=O)NC5=O)C6=O)CC4)CC3)cc2)C1` (some centres unmarked) [Compound 96]: the DC50 is < 1 nM. As for `Cc1ccc(OC2CCN(C(=O)c3ccc([C@H]4C[C@@H](Nc5cnn(C)c(=O)c5Br)CN(C)C4)cc3)CC2)cc1C1CCC(=O)NC1=O` (some centres unmarked) [Compound 121], the figure is 1 to 30 nM; as for `CN1C[C@H](Nc2cnn(C)c(=O)c2Br)C[C@H](c2ccc(C(=O)N3CCC4(CC3)CCN(c3ccc(F)c(C5CCC(=O)NC5=O)c3)CC4)cc2)C1` (some centres unmarked) [Compound 169], < 1 nM; as for `CN1C[C@H](Nc2cnn(C)c(=O)c2Br)C[C@H](c2ccc(CN3CCN(Cc4ccc5c(c4)CN(C4CCC(=O)NC4=O)C5=O)CC3)cc2)C1` (some centres unmarked) [Compound 74], < 1 nM. As for `CN1C[C@H](Nc2cnn(C)c(=O)c2Br)C[C@H](c2ccc(C(=O)N3CCC(c4ccc5c(c4)CN(C4CCC(=O)NC4=O)C5=O)CC3)cc2)C1` (some centres unmarked) [Compound 63], the figure is < 1 nM; as for `CN1C[C@H](Nc2cnn(C)c(=O)c2Cl)C[C@H](c2ccc(CN3CCC(c4ccc5c(c4)CN(C4CCC(=O)NC4=O)C5=O)CC3)cc2)C1` (some centres unmarked) [Compound 70], < 1 nM; as for `CN1C[C@H](Nc2cnn(C)c(=O)c2Br)C[C@H](c2ccc(C(=O)N3CC4(C3)CN(c3cccc5c3C(=O)N(C3CCC(=O)NC3=O)C5=O)C4)cc2)C1` (some centres unmarked) [Compound 29], < 1 nM. `CN1C[C@H](Nc2cnn(C)c(=O)c2Br)C[C@H](c2ccc(C(=O)N3CC4(C3)CN(c3ccc(C5CCC(=O)NC5=O)cc3)C4)cc2)C1` (some centres unmarked) [Compound 147]: the DC50 was 1 to 30 nM. In the case of `CN1C[C@H](Nc2cnn(C)c(=O)c2Cl)C[C@H](c2ccc(C(=O)N3CCC(c4cccc5c4CN(C4CCC(=O)NC4=O)C5=O)CC3)cc2)C1` (some centres unmarked) [Compound 91] it was > 30 nM; in that of `CN1C[C@H](Nc2cnn(C)c(=O)c2Br)C[C@H](c2ccc(CN3CC4(CCN(c5ccc(C6CCC(=O)NC6=O)cc5)CC4)C3)cc2)C1` (some centres unmarked) [Compound 154], < 1 nM; in that of `CN1C[C@H](Nc2cnn(C)c(=O)c2Br)C[C@H](c2ccc(C(=O)N3CC4(CN(Cc5ccc6c(c5)C(=O)N(C5CCC(=O)NC5=O)C6=O)C4)C3)cc2)C1` (some centres unmarked) [Compound 60], 1 to 30 nM. On to `CN1C[C@H](Nc2cnn(C)c(=O)c2Br)C[C@H](c2ccc(C(=O)N3CCC(c4ccc5c(c4)CN(C4CCC(=O)NC4=O)C5=O)CC3)cc2)C1` (some centres unmarked) [Compound 73], for which the DC50 was in the range of 1 to 30 nM. In the case of `Cc1ccc(N2CCC3(CCN(Cc4ccc([C@H]5C[C@@H](Nc6cnn(C)c(=O)c6Br)CN(C)C5)cc4)CC3)CC2)cc1C1CCC(=O)NC1=O` (some centres unmarked) [Compound 178], the DC50 lay in the range of 1 to 30 nM. Turning to `CN1C[C@H](Nc2cnn(C)c(=O)c2Br)C[C@H](c2ccc(CN(C)c3ccc(Oc4cccc5c4C(=O)N(C4CCC(=O)NC4=O)C5=O)cc3)cc2)C1` (some centres unmarked) [Compound 53], the DC50 is 1 to 30 nM. As to `CN1C[C@H](Nc2cnn(C)c(=O)c2Br)C[C@H](c2ccc(C(=O)N3CCC(c4ccc(NC5CCC(=O)NC5=O)cc4)CC3)cc2)C1` (some centres unmarked) [Compound 115], the DC50 is < 1 nM. As to `CN1C[C@H](Nc2cnn(C)c(=O)c2Br)C[C@H](c2ccc(C(=O)N3CCN(Cc4ccc(C(=O)Nc5ccc6c(c5)C(=O)N(C5CCC(=O)NC5=O)C6=O)cc4)CC3)cc2)C1` (some centres unmarked) [Compound 61], the DC50 is 1 to 30 nM. On to `CN1C[C@H](Nc2cnn(C)c(=O)c2Br)C[C@H](c2ccc(C(=O)NCCOCC(=O)Nc3ccc4c(c3)CN(C3CCC(=O)NC3=O)C4=O)cc2)C1` (some centres unmarked) [Compound 4], for which the DC50 is > 30 nM. As to `CN1C[C@H](Nc2cnn(C)c(=O)c2Br)C[C@H](c2ccc(CN3CCC(c4ccc5c(c4)C(=O)N(C4CCC(=O)NC4=O)C5=O)C3)cc2)C1` (some centres unmarked) [Compound 130], the DC50 was in the range of 1 to 30 nM. In the case of `CN1C[C@H](Nc2ccn(C)c(=O)c2Br)C[C@H](c2ccc(CN3CCC(c4ccc5c(c4)CN(C4CCC(=O)NC4=O)C5=O)CC3)cc2)C1` (some centres unmarked) [Compound 68] it was < 1 nM; in that of `CN1C[C@H](Nc2cnn(C)c(=O)c2Br)C[C@H](c2ccc(C(=O)N(C)CCOc3cccc4c3C(=O)N(C3CCC(=O)NC3=O)C4=O)cc2)C1` (some centres unmarked) [Compound 44], 1 to 30 nM. For `CN1C[C@H](Nc2cnn(C)c(=O)c2Br)C[C@H](c2ccc(CN3CCN(c4ccc(N5CCC(=O)NC5=O)cc4)CC3)cc2)C1` [Compound 78], the DC50 was > 30 nM.

With `CN1C[C@H](Nc2cnn(C)c(=O)c2Br)C[C@H](c2ccc(C(=O)NCCCCCCOCCOCC(=O)Nc3cccc4c3C(=O)N(C3CCC(=O)NC3=O)C4=O)cc2)C1` (some centres unmarked) [Compound 12], the DC50 was in the range of 1 to 30 nM. Consider `CN1C[C@H](Nc2cnn(C)c(=O)c2Br)C[C@H](c2ccc(C(=O)N3CCN(c4ccc(F)c(C5CCC(=O)NC5=O)c4)CC3)cc2)C1` (some centres unmarked) [Compound 143], for which the DC50 is < 1 nM.

Take `CN1C[C@H](Nc2cnn(C)c(=O)c2Br)C[C@H](c2ccc(C(=O)N3CCC(Oc4cccc(C5CCC(=O)NC5=O)c4)CC3)cc2)C1` (some centres unmarked) [Compound 119]: the DC50 fell in the range of 1 to 30 nM.

`Cc1ccc(OC2CCN(Cc3ccc([C@H]4C[C@@H](Nc5cnn(C)c(=O)c5Br)CN(C)C4)cc3)CC2)cc1C1CCC(=O)NC1=O` (some centres unmarked) [Compound 122]: the DC50 is 1 to 30 nM.

Consider `Cc1ccc(N2CCC3(CCN(C(=O)c4ccc([C@H]5C[C@@H](Nc6cnn(C)c(=O)c6Br)CN(C)C5)cc4)CC3)CC2)cc1C1CCC(=O)NC1=O` (some centres unmarked) [Compound 179], for which the DC50 was < 1 nM. As for `CN1C[C@H](Nc2cnn(C)c(=O)c2Br)C[C@H](c2ccc(C(=O)N3CCC(c4ccc(C5CCC(=O)NC5=O)cc4)CC3)cc2)C1` (some centres unmarked) [Compound 81], the figure is 1 to 30 nM; as for `CN1C[C@H](Nc2cnn(C)c(=O)c2Br)C[C@H](c2ccc(C(=O)N3CCN(Cc4ccc5c(c4)C(=O)N(C4CCC(=O)NC4=O)C5=O)CC3)cc2)C1` (some centres unmarked) [Compound 25], < 1 nM. In the case of `CN1C[C@H](Nc2cnn(C)c(=O)c2Cl)C[C@H](c2ccc(C(=O)N3CCN(c4ccc5c(c4)C(=O)N(C4CCC(=O)NC4=O)C5=O)CC3)cc2)C1` (some centres unmarked) [Compound 176], the 50% degradation concentration (DC50) is < 1 nM. As to `CN1C[C@H](Nc2cnn(C)c(=O)c2Br)C[C@H](c2ccc(CN3CCN(c4cccc(N5CCC(=O)NC5=O)c4)CC3)cc2)C1` [Compound 101], the DC50 lay within 1 to 30 nM. As for `CN1C[C@H](Nc2cnn(C)c(=O)c2Br)C[C@H](c2ccc(CN3CC4(C3)CN(c3cccc(C5CCC(=O)NC5=O)c3)C4)cc2)C1` (some centres unmarked) [Compound 160], the figure is > 30 nM; as for `CN1C[C@H](Nc2cnn(C)c(=O)c2Br)C[C@H](c2ccc(C(=O)NCCCCCCCCOc3cccc4c3C(=O)N(C3CCC(=O)NC3=O)C4=O)cc2)C1` (some centres unmarked) [Compound 42], 1 to 30 nM; as for `CN1C[C@H](Nc2cnn(C)c(=O)c2Br)C[C@H](c2ccc(C(=O)N(C)c3cccc(Oc4cccc5c4C(=O)N(C4CCC(=O)NC4)C5=O)c3)cc2)C1` (some centres unmarked) [Compound 26], 1 to 30 nM. As for `Cc1cc(N2CCC3(CCN(Cc4ccc([C@H]5C[C@@H](Nc6cnn(C)c(=O)c6Br)CN(C)C5)cc4)CC3)CC2)ccc1C1CCC(=O)NC1=O` (some centres unmarked) [Compound 166], the figure is < 1 nM.

As a reminder, the DC50 is the midpoint of the concentration-degradation curve.
